Test results: US20220008406A1, “USE OF NUCIFERIN AND LOTUS LEAF EXTRACT IN THE PREPARATION OF A MEDICAMENT FOR TREATING ATROPHIC GASTRITIS AND/OR BLOCKING TRANSFORMATION OF GASTRITIS INTO CANCER” (priority 2018, published 2022)
Entries after “also recorded” stand apart in the source; their conditions may differ.

Key:
colon cancer = conditions: people who take aspirin for a long time; cited from earlier work
[1] = tested on: rats with chronic atrophic gastritis; test: Nuciferine treatment of rats with chronic atrophic gastritis with intestinal metaplasia induced by sodium deoxycholate and ammonia water; type: in vivo, SD rats; conditions: for pathological state of chronic atrophic gastritis, HE-stained gastric tissue sections: 4 weeks after 8 weeks modeling, vs model group
Description: An animal model of chronic atrophic gastritis induced by sodium deoxycholate and ammonia water was selected. After the model was successfully established, celecoxib and nuciferine were given by gavage.
The experiment: The experimental animals were from Beijing Weitong Lihua Laboratory Animal Technology Co., Ltd. Thirty SD rats with a specific pathogen free (SPF) grade of 200±20 g were selected, with half males and half males, and randomly divided into […]: normal control group, chronic atrophic gastritis (CAG) model group, the positive drug celecoxib intervention group and the nuciferine intervention group, with 6 rats in each group. The nuciferine was purchased from Chengdu Refines Biotechnology Co., Ltd., with a specification of 5 g and a purity of over 98%. Celecoxib was purchased from Beijing Bailingwei Technology Co., Ltd., with brand J&K, a specification of 1 g, and purity above 98%. Sodium deoxycholate was purchased from Amresco, USA, with a specification of 100 g. The rats in the model group, celecoxib intervention group and nuciferine intervention group were given sodium deoxycholate solution and ammonia to induce chronic atrophic gastritis. 20 mmol/L sodium deoxycholate was administered […] at a dose of 6 ml/kg, twice a week on an empty stomach, 0.1% ammonia water was drunk freely, and the model was continuously modeled for 8 weeks. […] After modeling, the celecoxib group and the nuciferine intervention group were given celecoxib 10 mg/kg, nuciferine 40 mg/kg, and 10 mg/kg by gavage administration, once a day. During the experiment, the rats' body weight and food intake were observed.
At the end of the dosing experiment, after the rats were sacrificed by dislocation, the stomach tissue was quickly taken out and prepared for pathological sectioning. The obtained gastric tissue was cut along the greater curvature of the stomach, washed with saline, blotted dry with filter paper, and fixed with formalin solution (10% formaldehyde solution). The sections were embedded, dehydrated by alcohol, and then made transparent with xylene. And then the sections were waxed and embed in paraffin. In the staining stage, the sections were soaked in xylene solution for 10 minutes each time for 3 times; then they were soaked in absolute ethanol and rinsed in tap water. Finally, the sections were stained with hematoxylin (to stain the nucleus) and eosin (to stain the cytoplasm), and the sections were mounted with neutral gum. Finally, the pathological changes of rat stomach tissue were observed under light microscope.

[2] = tested on: gastric mucosal injury model rats; test: Protection against gastric mucosal damage induced by absolute ethanol in rats; type: in vivo, SD rats; conditions: for congestion and bleeding of the gastric mucosa: then 1.0 mL absolute ethanol
Description: After continuous administration of […] and […] in rats, gastric mucosal damage was induced by absolute ethanol, and the gastric mucosal damage was observed under a microscope after dissection.
The experimental: The experimental animals were from Beijing Sibeifu Biotechnology Co., Ltd., and 30 SD rats of 200±20 g specific pathogen free (SPF) grade, male, were chosen and randomly divided into 5 groups: normal control group, the gastric mucosal injury model group, the nuciferine low-dose group, the nuciferine high-dose group and the lotus leaf extract group, as shown in Table 3. The low-dose nuciferine group, the high-dose nuciferine group and the lotus leaf extract group were administered intragastrically for 14 days, once a day. The nuciferine was purchased from Chengdu Refines Biotechnology Co., Ltd., with a specification of 5 g and a purity of over 98%. The lotus leaf extract was purchased from Hebei Chenguang Biotechnology Group Handan Co., Ltd., with a specification of 1 kg and a content of nuciferine of more than 0.4%. 1 hour after the rats in the low-dose nuciferine group, the high-dose nuciferine group and the lotus leaf extract group were given continuous administration, the rats in the control group and the model group were strictly fasted for 24 hours (with water available), and medicine was also prohibited during this period. Rats in the model group, the low-dose nuciferine group, the high-dose nuciferine group, and the lotus leaf extract group were given 1.0 mL of absolute ethanol per rat by intragastric administration; 1 hour after the completion of the modeling, the rats were sacrificed by blood sampling from the abdominal aorta, and the stomach was taken by cutting the abdomen, was injected with 10% formaldehyde solution, and fixed for 20 minutes, then the stomach was cut along the greater curvature of the same and was washed to remove the stomach contents, and a general observation under a dissecting microscope was conducted and the length of injury (mm) was measured.

[3] = tested on: Drosophila gastrointestinal stem cells; test: DSS-induced abnormal proliferation of Drosophila gastrointestinal stem cells (esg-GFP); type: in vivo
Description: The gastrointestinal tumorigenesis model reported in the publication “Cell Stem Cell” of “Cell” Press was select. Dextran sulfate sodium (DSS) was used to induce abnormal proliferation of Drosophila gastrointestinal stem cells to simulate the process of tumorigenesis. During the modeling period, nuciferine and lotus leaf extract were given.
The experimental: Dextran sulfate sodium (DSS) was used to induce abnormal proliferation of drosophila gastrointestinal stem cells to simulate the process of tumorigenesis. The experimental drosophila were esg-GFP purchased from Tsinghua Drosophila Center. GFP (green fluorescent protein driven by esg-Ga14) can specifically label intestinal stem cells and enteroblasts. A solution containing 20% sucrose, 3% DSS (average molecular weight 40 kDa) and 0.5% dimethyl sulfoxide (DMSO) was prepared, and the solution was mixed with the drosophila food, and the mixture was placed half-dry and was then used to feed the drosophila to perform modeling. During the modeling period, different groups were given nuciferine and lotus leaf extract. The nuciferine was purchased from Chengdu Refines Biotechnology Co., Ltd., with a specification of 5 g and a purity of over 98%. The lotus leaf extract was purchased from Hebei Chenguang Biotechnology Group Handan Co., Ltd., with a specification of 100 g and a nuciferine content of more than 0.4%. Sodium dextran sulfate was purchased from Beijing Zhongkekeao Biotechnology Co., Ltd. with a brand of mp and a specification of 50 g. The dimethyl sulfoxide was purchased from Amresco, USA, with a specification of 500 ml.
1) The Nuciferine Experiment Groups
Model control group: medium+0.5% DMSO+3% DSS
Low-dose nuciferine group: medium+0.5% DMSO+3% DSS+nuciferine 100 μM
High-dose nuciferine group: medium+0.5% DMSO+3% DSS+nuciferine 200 μM
2) The Lotus Leaf Extract Experiment Groups
Lotus leaf extract low-dose group: medium+0.5% DMSO+3% DSS+lotus leaf extract (containing 100 μM […])
Lotus leaf extract medium-dose group: medium+0.5% DMSO+3% DSS+lotus leaf extract (containing 200 μM […]) […]

MNNG-GES-1 cells = test: MTT assay on MNNG-stimulated GES-1 cell model of transformation of gastritis to gastric cancer; type: cell-based, human; conditions: nuciferine 48 h
Description: The gastritis cancer transformation model used in this example formed by human gastric epithelial cells (GES-1) induced by chemical mutagens N-methyl N-nitronitrosoguanidine (MNNG) was as reported in the literature. The nuciferine was purchased from Chengdu Refines Biotechnology Co., Ltd., with a specification of 1 g and a purity of over 98%. The MNNG was purchased from Beijing Baiyiyi Chuang Biotechnology Co., Ltd., with a brand Tixiai and a specification of 5 g. The GES-1 cells were purchased from Shanghai Xuran Biotechnology Co., Ltd. The phosphate buffered saline (PBS) was purchased from Amresco, USA, with a specification of 10 L. The dimethyl sulfoxide (DMSO) was purchased from Amresco, USA, with a specification of 500 ml. The fetal bovine serum (FBS) was purchased from Amresco, USA, with a specification of 100 ml. The 3-(4,5-Dimethylthiazole-2)-2,5-diphenyltetrazolium bromide (MTT) was purchased from Shanghai Biyuntian Biotechnology Co., Ltd., with a specification of 500 mg.
GES-1 cells was planted in a 96-well plate (8000 cells/well, leave a row of blank holes, discard the edge holes and add an equal volume of PBS to reduce evaporation), the old solution was aspirated the next day, and 10% FBS containing no double antibody medium was added, […] MNNG was added to induce stimulation, culturing for 24 h in the dark, and discarding the culture medium containing MNNG. […]

Structure (SMILES)	reduction of incidence of colon cancer (colon cancer)	pathological state of chronic atrophic gastritis, HE-stained gastric tissue sections ([1]; 10 mg/kg (celecoxib group; low-dose nuciferine group) by gavage once a day)	pathological state of chronic atrophic gastritis, HE-stained gastric tissue sections ([1]; 40 mg/kg (high-dose nuciferine group) by gavage once a day)	weight of rats ([1]; CAG model rats, therapeutic administration, dose groups not distinguished)	treatment of chronic atrophic gastritis and intestinal metaplasia of rats (pathological slices) ([1]; intervention groups, doses not distinguished)	gastric mucosal injury of rats compared with the model group ([2]; doses not distinguished)	congestion and bleeding of the gastric mucosa ([2]; nuciferine high-dose 40 mg/kg intragastric once a day 14 days)	congestion and bleeding of the gastric mucosa ([2]; nuciferine low-dose 20 mg/kg intragastric once a day 14 days)	abnormal proliferation of Drosophila gastrointestinal stem cells and mucosal ulceration ([3]; doses not distinguished)	proliferation of drosophila gastrointestinal stem cells ([3]; high-dose nuciferine 200 μM in medium + 0.5% DMSO + 3% DSS, 3-5 days at 25° C.)	abnormal proliferation of drosophila gastrointestinal stem cells ([3]; low-dose nuciferine 100 μM in medium + 0.5% DMSO + 3% DSS, 3-5 days at 25° C.)	IC50 (MNNG-GES-1 cells; Homo sapiens, GES1, GES-1 cells stimulated with MNNG 24 h, read-out: half inhibitory concentration (IC50) on cells transformed from gastritis to gastric cancer)	viability of MNNG-GES-1 cells (MNNG-GES-1 cells; P<0.05)
CC(=O)Oc1ccccc1C(=O)O [aspirin]	24%												
COc1cc2c3c(c1OC)-c1ccccc1C[C@H]3N(C)CC2 [nuciferine]		reduced to the state of chronic non-atrophic gastritis	best effect; also recorded: significantly reduced	increased the weight of rats	effectively treated	significantly improved; also recorded: improved compared with the model group	no congestion and bleeding	reduced	effectively inhibited	returned to normal	reduced	92.7 µM	significantly inhibiting
